This note sets out measurements from ChEMBL document CHEMBL1201861, “Genomics of Drug Sensitity in Cancer screening data, Wellcome Trust Sanger Institute”.

Where only a bound is given, the exact number is not on record here.

One assay relates to NOS-1. The assay is described as follows: cells. The class given is functional, cell-based, Homo sapiens. To be noted: Homo sapiens, NOS-1.
The test system of another assay is CAS-1. The experiment in a line: cells. The class given is functional, cell-based, Homo sapiens. To be noted: Homo sapiens, CAS-1.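 Further: growth inhibition of CAS-1 cells, measured with a cell viability assay.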

Description for CAS-1: SANGER: Inhibition of human CAS-1 cell growth in a cell viability assay.
Description for NOS-1: SANGER: Inhibition of human NOS-1 cell growth in a cell viability assay.

`CO[C@@H]1[C@H](N(C)C(=O)c2ccccc2)C[C@H]2O[C@]1(C)n1c3ccccc3c3c4c(c5c6ccccc6n2c5c31)C(=O)NC4` [MIDOSTAURIN]: the IC50 (commonly the midpoint of a concentration-inhibition curve) was above 512 nM with NOS-1 and 182 nM in the assay on CAS-1.
